# Patent US12156533B2, “Nicotine salt formulations for aerosol devices and methods thereof” (JUUL Labs, Inc., priority 2013, dated 2024)
# Conditions: nicotine:tartaric acid 1:2 molar ratio; in PG, VG or any mixture of PG and VG at ambient conditions
# Source text: As used herein, weight percentage (w/w) refers to the weight of the individual component over the weight of the total formulation.
compound,measurement,value
CN1CCCC1c1cccnc1.O=C(O)C(O)C(O)C(=O)O (stereo not shown) [nicotine bitartrate],concentration at which no solution is produced,≥ 0.5 % (w/w) nicotine
